From PMC3914206

Assays:
Format in all cases: binding
Details in all cases: Compound Concentration 10 µM
panel of 442 kinases [1] = molecular target: T1, panel of 442 kinases (Homo sapiens, UniProt Q15746)
T1 construct: purchased KINOMEscan
Text: (§1) We assessed the selectivity of members of this scaffold using the KINOMEscan methodology across a near comprehensive panel of 442 kinases [[18,27]].

panel of 442 kinases [2] = molecular target: T2, panel of 442 kinases (Homo sapiens, UniProt Q05397)
T2 construct: purchased KINOMEscan
T2 sequence (Q05397 whole entry): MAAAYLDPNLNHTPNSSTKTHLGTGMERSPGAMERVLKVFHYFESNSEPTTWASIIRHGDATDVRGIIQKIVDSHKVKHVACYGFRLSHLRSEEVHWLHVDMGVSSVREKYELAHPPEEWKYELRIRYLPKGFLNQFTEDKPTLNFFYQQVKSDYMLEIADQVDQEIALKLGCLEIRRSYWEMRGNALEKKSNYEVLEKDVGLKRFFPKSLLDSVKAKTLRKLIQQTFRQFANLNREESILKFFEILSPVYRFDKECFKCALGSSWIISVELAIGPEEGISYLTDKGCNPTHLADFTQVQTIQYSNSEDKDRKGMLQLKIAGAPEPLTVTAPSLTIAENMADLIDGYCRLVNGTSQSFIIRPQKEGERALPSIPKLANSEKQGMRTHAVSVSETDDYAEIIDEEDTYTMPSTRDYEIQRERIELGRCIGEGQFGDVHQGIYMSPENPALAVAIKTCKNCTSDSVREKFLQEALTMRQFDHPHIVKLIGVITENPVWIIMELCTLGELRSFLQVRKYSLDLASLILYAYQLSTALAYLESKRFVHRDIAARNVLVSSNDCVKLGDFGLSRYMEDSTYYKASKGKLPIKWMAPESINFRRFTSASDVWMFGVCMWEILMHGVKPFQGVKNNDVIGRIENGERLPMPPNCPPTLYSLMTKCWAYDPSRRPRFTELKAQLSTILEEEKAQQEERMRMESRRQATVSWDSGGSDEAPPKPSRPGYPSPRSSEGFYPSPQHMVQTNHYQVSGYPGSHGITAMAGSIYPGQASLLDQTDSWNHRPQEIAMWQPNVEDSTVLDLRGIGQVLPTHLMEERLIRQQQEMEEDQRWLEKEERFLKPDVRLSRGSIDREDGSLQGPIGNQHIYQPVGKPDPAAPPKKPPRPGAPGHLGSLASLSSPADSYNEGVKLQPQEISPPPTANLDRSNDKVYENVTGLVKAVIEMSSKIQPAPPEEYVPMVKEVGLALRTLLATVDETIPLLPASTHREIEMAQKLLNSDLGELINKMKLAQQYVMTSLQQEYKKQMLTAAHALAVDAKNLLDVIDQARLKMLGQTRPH
Text: as §1

panel of 442 kinases [3] = molecular target: T3, panel of 442 kinases (Homo sapiens, UniProt Q12866)
T3 construct: purchased KINOMEscan
T3 sequence (Q12866 21-999): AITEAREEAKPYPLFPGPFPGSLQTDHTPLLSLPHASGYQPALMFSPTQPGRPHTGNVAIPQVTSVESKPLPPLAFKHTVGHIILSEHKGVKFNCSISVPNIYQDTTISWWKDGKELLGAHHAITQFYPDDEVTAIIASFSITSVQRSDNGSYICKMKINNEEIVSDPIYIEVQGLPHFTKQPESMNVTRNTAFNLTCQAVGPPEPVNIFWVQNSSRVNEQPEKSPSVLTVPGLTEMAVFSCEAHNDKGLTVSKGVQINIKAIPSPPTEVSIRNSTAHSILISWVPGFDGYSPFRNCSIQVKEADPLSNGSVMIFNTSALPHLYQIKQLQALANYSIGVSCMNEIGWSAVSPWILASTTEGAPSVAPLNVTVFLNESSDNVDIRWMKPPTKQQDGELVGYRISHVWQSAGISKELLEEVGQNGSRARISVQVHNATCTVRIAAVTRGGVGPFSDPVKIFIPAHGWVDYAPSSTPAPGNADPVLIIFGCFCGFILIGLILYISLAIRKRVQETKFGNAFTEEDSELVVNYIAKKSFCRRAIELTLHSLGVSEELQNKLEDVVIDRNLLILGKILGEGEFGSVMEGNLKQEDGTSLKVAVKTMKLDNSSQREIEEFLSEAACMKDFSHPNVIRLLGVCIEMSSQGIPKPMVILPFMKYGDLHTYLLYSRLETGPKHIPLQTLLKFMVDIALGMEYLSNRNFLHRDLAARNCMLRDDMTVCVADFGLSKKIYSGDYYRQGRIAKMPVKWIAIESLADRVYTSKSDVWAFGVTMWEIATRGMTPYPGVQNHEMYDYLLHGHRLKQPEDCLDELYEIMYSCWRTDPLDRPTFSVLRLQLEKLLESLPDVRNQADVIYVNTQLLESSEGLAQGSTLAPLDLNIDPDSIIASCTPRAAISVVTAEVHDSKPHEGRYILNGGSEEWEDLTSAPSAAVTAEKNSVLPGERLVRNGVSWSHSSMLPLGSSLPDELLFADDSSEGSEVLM
Text: as §1

T1 sequence (Q15746 whole entry): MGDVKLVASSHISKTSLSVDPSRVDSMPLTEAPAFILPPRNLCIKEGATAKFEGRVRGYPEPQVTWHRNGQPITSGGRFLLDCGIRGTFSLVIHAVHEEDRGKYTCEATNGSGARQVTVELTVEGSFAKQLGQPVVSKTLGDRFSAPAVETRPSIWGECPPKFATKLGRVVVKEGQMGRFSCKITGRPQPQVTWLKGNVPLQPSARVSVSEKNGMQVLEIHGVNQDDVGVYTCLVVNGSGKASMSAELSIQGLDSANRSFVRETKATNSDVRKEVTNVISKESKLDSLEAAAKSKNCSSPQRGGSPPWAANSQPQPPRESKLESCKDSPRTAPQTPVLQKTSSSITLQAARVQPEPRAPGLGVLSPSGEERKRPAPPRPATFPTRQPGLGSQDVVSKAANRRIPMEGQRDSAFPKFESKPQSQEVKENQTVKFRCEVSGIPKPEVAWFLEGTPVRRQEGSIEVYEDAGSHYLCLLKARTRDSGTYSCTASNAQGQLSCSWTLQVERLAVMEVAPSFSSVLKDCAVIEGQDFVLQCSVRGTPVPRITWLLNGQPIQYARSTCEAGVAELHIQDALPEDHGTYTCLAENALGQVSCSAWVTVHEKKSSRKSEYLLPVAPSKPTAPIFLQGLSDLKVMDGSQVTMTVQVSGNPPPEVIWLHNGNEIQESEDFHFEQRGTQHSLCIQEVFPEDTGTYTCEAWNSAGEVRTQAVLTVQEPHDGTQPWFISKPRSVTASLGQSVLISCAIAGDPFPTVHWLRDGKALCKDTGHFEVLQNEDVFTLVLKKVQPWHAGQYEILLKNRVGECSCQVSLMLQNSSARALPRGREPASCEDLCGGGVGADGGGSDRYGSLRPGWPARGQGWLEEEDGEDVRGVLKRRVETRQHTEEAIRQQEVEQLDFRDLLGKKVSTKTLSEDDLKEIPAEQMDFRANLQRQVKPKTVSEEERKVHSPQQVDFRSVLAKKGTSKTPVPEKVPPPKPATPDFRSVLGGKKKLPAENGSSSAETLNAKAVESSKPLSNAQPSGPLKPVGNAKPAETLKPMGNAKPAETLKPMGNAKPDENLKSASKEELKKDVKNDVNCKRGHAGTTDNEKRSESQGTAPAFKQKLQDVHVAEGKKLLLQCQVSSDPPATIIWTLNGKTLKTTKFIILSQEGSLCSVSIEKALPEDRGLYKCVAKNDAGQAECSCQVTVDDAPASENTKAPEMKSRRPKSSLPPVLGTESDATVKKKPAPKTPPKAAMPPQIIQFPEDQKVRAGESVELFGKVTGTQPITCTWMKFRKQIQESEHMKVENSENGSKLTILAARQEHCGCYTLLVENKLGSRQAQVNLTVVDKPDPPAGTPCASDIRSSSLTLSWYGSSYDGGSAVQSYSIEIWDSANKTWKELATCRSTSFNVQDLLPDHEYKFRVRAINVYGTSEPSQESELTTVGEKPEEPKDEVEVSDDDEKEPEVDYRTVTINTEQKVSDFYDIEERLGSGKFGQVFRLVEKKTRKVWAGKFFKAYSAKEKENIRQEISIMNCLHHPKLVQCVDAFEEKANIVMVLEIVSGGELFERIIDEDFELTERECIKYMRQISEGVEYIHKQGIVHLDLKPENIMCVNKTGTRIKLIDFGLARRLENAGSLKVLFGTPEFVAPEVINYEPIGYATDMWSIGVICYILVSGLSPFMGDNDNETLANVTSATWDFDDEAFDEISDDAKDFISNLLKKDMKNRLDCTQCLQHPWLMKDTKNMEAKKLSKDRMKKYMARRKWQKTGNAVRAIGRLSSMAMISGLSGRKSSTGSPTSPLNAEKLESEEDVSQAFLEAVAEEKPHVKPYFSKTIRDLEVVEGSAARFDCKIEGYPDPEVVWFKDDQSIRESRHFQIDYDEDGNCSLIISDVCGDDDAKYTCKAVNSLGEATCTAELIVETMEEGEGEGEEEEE

## COc1cc(C(=O)N2CCC(N3CCN(C)CC3)CC2)ccc1Nc1ncc2c(n1)N(C1CCCC1)c1ccccc1C(=O)N2C [Compound 25, 11-cyclopentyl-2-((2-methoxy-4-(4-(4-methylpiperazin-1-yl)piperidine-1-carbonyl)phenyl)amino)-5-methyl-5H-benzo[e]pyrimido[5,4-b][1,4]diazepin-6(11H)-one]
Panel of 442 kinases [1]
  KINOMEscan: MYLK: 73
Panel of 442 kinases [2]
  KINOMEscan: FAK: 19
Panel of 442 kinases [3]
  KINOMEscan: MERTK: 100

## CCOc1cc(C(=O)N2CCC(N3CCN(C)CC3)CC2)ccc1Nc1ncc2c(n1)N(C1CCCC1)c1ccccc1C(=O)N2C [Compound 26]
Panel of 442 kinases [1]
  KINOMEscan: MYLK: 98
Panel of 442 kinases [2]
  KINOMEscan: FAK: 57
Panel of 442 kinases [3]
  KINOMEscan: MERTK: 100

## COc1cc(C(=O)N2CCC(N3CCN(C)CC3)CC2)ccc1Nc1ncc2c(n1)N1CCc3cccc(c31)C(=O)N2C [Compound 24]
Panel of 442 kinases [1]
  KINOMEscan: MYLK: 2.9

## COc1cc(C(=O)N2CCC(N3CCN(C)CC3)CC2)ccc1Nc1ncc2c(n1)N(C)c1ccccc1C(=O)N2C [15 (LRRK2-IN-1)]
Panel of 442 kinases [1]
  KINOMEscan: MYLK: 8.7
Panel of 442 kinases [2]
  KINOMEscan: FAK: 34
Panel of 442 kinases [3]
  KINOMEscan: MERTK: 100
